Assay type in all cases: in vivo
Test [1] deals with Echinochloa oryzicola Vasing. (Eo). Description: Test for herbicidal effect by paddy field soil treatment (Test Example 1). The settings on record: application amount (active ingredient) 100 g/10 a, examined at the 21st day from the treatment, index per Table 40. On the procedure:
<Test Example 1> Test For Herbicidal Effect By Paddy Field Soil Treatment A paddy field soil was filled in a plastic pot of 100 cm^2 and subjected to puddling. Then, seeds of Echinochloa oryzicola Vasing. (Eo) were sowed and water was filled in a depth of 3 cm. Next day, wettable powders produced in accordance with the Formulation 1 were diluted with water and dropped on the water surface. The application amount of each wettable powder was 100 g per 10 ares in terms of the active ingredient. Then, breeding was made in a greenhouse, and the herbicidal effect of each wettable powder was examined at the 21st day from the treatment in accordance with the standard shown in Table 40. [table]

The test system of test [2] is Echinochloa crus-galli (L.) Beauv. var. crusgall (Ec). Description: Test for herbicidal effect by upland field soil treatment (Test Example 2), Ec. On the procedure:
(§1) [table] <Test Example 2> Test For Herbicidal Effect By Upland Field Soil Treatment An upland field soil was filed in a plastic pot of 80 cm^2. Seeds of Echinochloa crus-galli (L.) Beauv. var. crusgall (Ec) and Setaria viridis (L.) Beauv. (Se) were sowed, followed by covering with the same soil. Wettable powders produced in accordance with the Formulation 1 were diluted with water and sprayed uniformly: on the soil surface using a small sprayer, in an amount of 100 liters per 10 ares so that the amount of each active ingredient became 100 g per 10 ares. Then, breeding was made in a greenhouse, and the herbicidal effect of each wettable powder was examined at the 21st day from the treatment in accordance with the standard shown in Table 40.

The subject of test [3] is Setaria viridis (L.) Beauv. (Se). The experiment in a line: Test for herbicidal effect by upland field soil treatment (Test Example 2), Se. The conditions noted are these: application amount (active ingredient) 100 g/10 a, examined at the 21st day from the treatment, index per Table 40. On the procedure:
as §1

For test [4], the system named is Echinochloa crus-galli (L.) Beauv. var. crusgalli (Ec). The experiment in a line: Test for herbicidal effect by upland foliage treatment (Test Example 3). The settings on record: 100 g/10 a active ingredient, examined at 14th day. On the procedure:
Test For Herbicidal Effect By Upland Foliage Treatment
An upland field soil was filed in a plastic pot of 80 cm^2. Seeds of Echinochloa crus-galli (L.) Beauv. var. crusgalli (Ec) were sowed. Breeding was made in a greenhouse for 2 weeks. Wettable powders produced in accordance with the Formulation 1 were diluted with water and sprayed on the whole foliage of plants from above the plants using a small sprayer in an amount of 100 liters per 10 ares so that the amount of each active ingredient became 100 g per 10 ares. Then, breeding was made in the greenhouse, and the herbicidal effect of each wettable powder was examined at the 14th day from the treatment in accordance with the standard shown in Table 40.

The mark [5] stands for this setting: application amount (active ingredient) 100 g/10 a, examined at the 21st day from the treatment, index per Table 40.

The text below walks through data of patent US6841519B1, “Isoxazoline derivatives and herbicides containing the same as the active ingredient” (Kumiai Chemical Industry Co., Ltd., priority 1999, dated 2005).

SMILES strings stand for the structures.

Regarding `CC1(C)CC(S(=O)(=O)Cc2ccccc2)=NO1` [Compound 1-1], the “Herbicidal effect to Eo” value in test [1] is given as 5 (A herbicidal effect or phytotoxicity of 90% or more). Further, the “Herbicidal effect to Ec” value in test [2] (setting [5]) and in test [4] was 5 (A herbicidal effect or phytotoxicity of 90% or more) each time. For the same compound, the “Herbicidal effect to Se” value in test [3] is listed as 5 (A herbicidal effect or phytotoxicity of 90% or more).
As to `CC1(C)CC(S(=O)(=O)Cc2cccc(Cl)c2)=NO1` [Compound 1-3], the “Herbicidal effect to Eo” value in test [1] was 5 (A herbicidal effect or phytotoxicity of 90% or more). For the same compound, the “Herbicidal effect to Ec” value in test [2] (setting [5]) is recorded as 5 (A herbicidal effect or phytotoxicity of 90% or more); in test [4] it was 4 (A herbicidal effect or phytotoxicity of 70% to less than 90%). For the same compound, the “Herbicidal effect to Se” value in test [3] is on record as 5 (A herbicidal effect or phytotoxicity of 90% or more).
`CC1(C)CC(S(=O)(=O)Cc2ccc(Cl)cc2)=NO1` [Compound 1-4]: the “Herbicidal effect to Eo” value in test [1] is given as 5 (A herbicidal effect or phytotoxicity of 90% or more). Moreover, the figures for the “Herbicidal effect to Ec” value in test [2] (setting [5]) and in test [4] were 5 (A herbicidal effect or phytotoxicity of 90% or more) and 4 (A herbicidal effect or phytotoxicity of 70% to less than 90%), respectively. In addition, the “Herbicidal effect to Se” value in test [3] was 5 (A herbicidal effect or phytotoxicity of 90% or more).
On to `Cc1ccccc1CS(=O)(=O)C1=NOC(C)(C)C1` [Compound 1-5], for which, in test [1], the “Herbicidal effect to Eo” value is recorded as 5 (A herbicidal effect or phytotoxicity of 90% or more). Besides, the “Herbicidal effect to Ec” value in test [2] (setting [5]) and in test [4] was 5 (A herbicidal effect or phytotoxicity of 90% or more) each time. Also, the “Herbicidal effect to Se” value in test [3] is 5 (A herbicidal effect or phytotoxicity of 90% or more).
Regarding `Cc1cccc(CS(=O)(=O)C2=NOC(C)(C)C2)c1` [Compound 1-6], in test [1], the “Herbicidal effect to Eo” value was 5 (A herbicidal effect or phytotoxicity of 90% or more). In addition, the “Herbicidal effect to Ec” value was 5 (A herbicidal effect or phytotoxicity of 90% or more) in test [2] (setting [5]) and 4 (A herbicidal effect or phytotoxicity of 70% to less than 90%) in test [4]. Besides, the “Herbicidal effect to Se” value in test [3] is 5 (A herbicidal effect or phytotoxicity of 90% or more).
As for `Cc1ccc(CS(=O)(=O)C2=NOC(C)(C)C2)cc1` [Compound 1-7], the “Herbicidal effect to Eo” value in test [1] is listed as 5 (A herbicidal effect or phytotoxicity of 90% or more). The “Herbicidal effect to Ec” value in test [2] (setting [5]) is recorded as 5 (A herbicidal effect or phytotoxicity of 90% or more); in test [4] it was 4 (A herbicidal effect or phytotoxicity of 70% to less than 90%). For the same compound, the “Herbicidal effect to Se” value in test [3] is given as 5 (A herbicidal effect or phytotoxicity of 90% or more).
`CC1(C)CC(S(=O)(=O)Cc2ccccc2F)=NO1` [Compound 1-32]: the “Herbicidal effect to Eo” value in test [1] is on record as 5 (A herbicidal effect or phytotoxicity of 90% or more). Also, the “Herbicidal effect to Ec” value in test [2] (setting [5]) and in test [4] was 5 (A herbicidal effect or phytotoxicity of 90% or more) throughout. The “Herbicidal effect to Se” value in test [3] is 5 (A herbicidal effect or phytotoxicity of 90% or more).
Regarding `CC1(C)CC(S(=O)(=O)Cc2ccccc2Br)=NO1` [Compound 1-35], the “Herbicidal effect to Eo” value in test [1] is 5 (A herbicidal effect or phytotoxicity of 90% or more). For the same compound, the “Herbicidal effect to Ec” value was 5 (A herbicidal effect or phytotoxicity of 90% or more) in test [2] (setting [5]) and 4 (A herbicidal effect or phytotoxicity of 70% to less than 90%) in test [4]. Besides, the “Herbicidal effect to Se” value in test [3] is 5 (A herbicidal effect or phytotoxicity of 90% or more).
Take `COc1ccccc1CS(=O)(=O)C1=NOC(C)(C)C1` [Compound 1-40]: in test [1], the “Herbicidal effect to Eo” value is given as 5 (A herbicidal effect or phytotoxicity of 90% or more). Besides, the “Herbicidal effect to Ec” value in test [2] (setting [5]) and in test [4] was 5 (A herbicidal effect or phytotoxicity of 90% or more) in each case. Further, the “Herbicidal effect to Se” value in test [3] is reported as 5 (A herbicidal effect or phytotoxicity of 90% or more).
Regarding `CCOc1ccccc1CS(=O)(=O)C1=NOC(C)(C)C1` [Compound 1-43], in test [1], the “Herbicidal effect to Eo” value is 5 (A herbicidal effect or phytotoxicity of 90% or more). Also, the “Herbicidal effect to Ec” value in test [2] (setting [5]) and in test [4] was 5 (A herbicidal effect or phytotoxicity of 90% or more) throughout. Also, the “Herbicidal effect to Se” value in test [3] is recorded as 5 (A herbicidal effect or phytotoxicity of 90% or more).
As to `CC1(C)CC(S(=O)(=O)Cc2ccccc2OC(F)F)=NO1` [Compound 1-55], the “Herbicidal effect to Eo” value in test [1] is 5 (A herbicidal effect or phytotoxicity of 90% or more). The “Herbicidal effect to Ec” value in test [2] (setting [5]) is reported as 5 (A herbicidal effect or phytotoxicity of 90% or more); in test [4], 4 (A herbicidal effect or phytotoxicity of 70% to less than 90%). Also, the “Herbicidal effect to Se” value in test [3] was 5 (A herbicidal effect or phytotoxicity of 90% or more).
Consider `CC1(C)CC(S(=O)(=O)Cc2cccc(OC(F)F)c2)=NO1` [Compound 1-56], for which the “Herbicidal effect to Eo” value in test [1] is listed as 5 (A herbicidal effect or phytotoxicity of 90% or more). Besides, the “Herbicidal effect to Ec” value in test [2] (setting [5]) and in test [4] was 5 (A herbicidal effect or phytotoxicity of 90% or more) in each case. The “Herbicidal effect to Se” value in test [3] is reported as 5 (A herbicidal effect or phytotoxicity of 90% or more).
Regarding `CC1(C)CC(S(=O)(=O)Cc2cccc(OC(F)(F)F)c2)=NO1` [Compound 1-59], the “Herbicidal effect to Eo” value in test [1] is recorded as 5 (A herbicidal effect or phytotoxicity of 90% or more). Moreover, the “Herbicidal effect to Ec” value in test [2] (setting [5]) and in test [4] was 5 (A herbicidal effect or phytotoxicity of 90% or more) throughout. Also, in test [3], the “Herbicidal effect to Se” value is 5 (A herbicidal effect or phytotoxicity of 90% or more).
For `CC1(C)CC(S(=O)(=O)Cc2ccccc2S(C)(=O)=O)=NO1` [Compound 1-106], the “Herbicidal effect to Eo” value in test [1] is on record as 5 (A herbicidal effect or phytotoxicity of 90% or more). Moreover, the “Herbicidal effect to Ec” value in test [2] (setting [5]) is 5 (A herbicidal effect or phytotoxicity of 90% or more); in test [4], 4 (A herbicidal effect or phytotoxicity of 70% to less than 90%). Further, in test [3], the “Herbicidal effect to Se” value is recorded as 5 (A herbicidal effect or phytotoxicity of 90% or more).
In the case of `CC1(C)CC(S(=O)(=O)Cc2ccccc2C#N)=NO1` [Compound 1-139], in test [1], the “Herbicidal effect to Eo” value is listed as 5 (A herbicidal effect or phytotoxicity of 90% or more). Further, the “Herbicidal effect to Ec” value was 5 (A herbicidal effect or phytotoxicity of 90% or more) in test [2] (setting [5]) and 4 (A herbicidal effect or phytotoxicity of 70% to less than 90%) in test [4]. In addition, in test [3], the “Herbicidal effect to Se” value was 5 (A herbicidal effect or phytotoxicity of 90% or more).
Consider `Cc1ccc(C)c(CS(=O)(=O)C2=NOC(C)(C)C2)c1C` [Compound 1-616], for which, in test [1], the “Herbicidal effect to Eo” value is 5 (A herbicidal effect or phytotoxicity of 90% or more). In addition, the “Herbicidal effect to Ec” value was 5 (A herbicidal effect or phytotoxicity of 90% or more) in test [2] (100 g/10 a active ingredient, examined at 21st day) and 5 (A herbicidal effect or phytotoxicity of 90% or more) in test [4].
